Data on three molecules can be found in US7842709B2, “Method for treating inflammatory diseases of the digestive tract” (Ore Pharmaceuticals Inc., priority 2006, dated 2010).

For series [1], the system named is DSS-induced colitis. In words: DSS-induced colitis in Balb/c mice, Example 7. The format is in vivo. Here is the method:
A study was designed with six groups of Balb/c mice: naïve control, DSS followed by vehicle, DSS followed by GL1001 30 mg/kg/day, DSS followed by GL1001 100 mg/kg/day, DSS followed by GL1001 300 mg/kg/day, and DSS followed by sulfasalazine 150 mg/kg/day. Administration of DSS was via drinking water, from day 1 to day 6 of the study. […] Administration of vehicle, GL1001 and sulfasalazine was subcutaneous, twice daily, from day 6 until termination of the study (day 16). Body weight of each animal was measured at days 1, 3 and 5 (pre-initiation of GL1001 or sulfasalazine treatment) and at days 7, 9, 11 and 13 (post-initiation of GL1001 or sulfasalazine treatment). On these same days, disease activity measurements were recorded, including: • (a) rectal prolapse (0=no prolapse, 1=partial prolapse, 2=moderate prolapse, 3=full prolapse); • (b) stool consistency (0=solid pellet, 1=semi-solid, 2=soft stool, 3=diarrhea); and • (c) fecal occult blood (0=no blood present, 1=occult blood, 2=gross blood). At termination of the study, colon length was determined and histological analysis was conducted as in Example 6.

In series [2] the test system is Crohn's disease. As to conditions: cited from earlier work.
Series [3] has as its system ulcerative colitis. As to conditions: 5 mg/kg infusions; cited from earlier work.
The test system of series [4] is NF-κB activity. As to conditions: at least in CD; cited from earlier work.
Series [5] deals with basal NF-κB dependent transcription. In words: In vivo basal NF-κB dependent transcription, abdominal imaging of NF-κB:Luc mice. As to conditions: 300 mg/kg subcutaneous, 4 hours; p<0.01. From the text: GL1001 was further tested for in vivo anti-inflammatory activity by examining its effects on basal levels of NF-κB dependent transcription in mice engineered in the germline with a construct containing an NF-κB enhancer linked to a luciferase gene (i.e., NF-κB:Luc mice), such that this NF-κB reporter construct is present in all cells of the mice.
More particularly, transgenic NF-κB:Luc mice were generated using three NF-κB response elements from the Igκ light chain promoter fused to a firefly luciferase gene as described by Carlsen et al. (2002) J. Immunol. 168:1441-1446. Pronuclear microinjection of purified construct DNA was used to generate transgenic founders in the C57BL/6 XCBA/J background. Founders were subsequently back crossed to the C57BL/6 albino background. […] Signal data were also quantitated and archived using the Living Image® software. Photons of light were quantitated using an oval region of interest (ROI) of varying sizes depending on the procedure, as described further below.
To test for in vivo effects of GL1001 on basal levels of NF-κB dependent transcription, male NF-κB:Luc mice were subjected to quantitative in vivo imaging of the abdominal area (using a fixed ROI of 2.76×3.7 cm) as described above, immediately before, and at 2, […]

Series [6] deals with activator protein-1 (AP-1). Description: In vivo basal reporter luciferase expression in AP-1:Luc mice. Conditions: data not shown.
In series [7] the test system is LPS induced NF-κB dependent transcription. Description: LPS induced NF-κB dependent transcription in extracted organs of NF-κB:Luc mice (luciferase lysate assay). The format is in vivo. Conditions: 0.5 mg/kg LPS and GL1001 at 30 mg/1 g vs LPS alone (FIG. 6). From the text:
For luciferase assays, organs were extracted and snap frozen in liquid nitrogen. All tissue samples were placed in lysis buffer with inhibitors (Passive Lysis Buffer (Promega) and Complete Mini Protease Inhibitor Cocktail (Roche, Indianapolis, Ind.)), and were homogenized using a tissue homogenizer (Handishear, Hand-held homogenizer, VirTis, Gardiner, N.Y.). Tissue homogenates were centrifuged and clarified lysates were used for luminometer assays and western blots. For the luminometer assays, Luciferase Assay Substrate (Luciferase Assay System, Promega) was prepared as indicated by the manufacturer and placed in disposable cuvettes. […] Background luminescence readings were obtained and the background readings were subtracted from the luminescent data. Protein concentrations were determined using the BCA Protein Assay Kit (Pierce, Rockford, Ill.) following the manufacturer's protocols and analyzed using a VERSAmax tunable microplate reader and associated Softmax Pro version 3.1.2 software (Molecular Devices, Sunnyvale Calif.). The luminescence for each of the protein lysates was calculated as arbitrary units of light per microgram of protein. […]
GL1001 was further tested for in vivo anti-inflammatory activity by examining its effects on bacterial LPS induced NF-κB dependent transcription, in NF-κB:Luc mice. […] Luciferase signal was quantitated from several regions of interest. […]

The test system of series [8] is NF-κB dependent transcription in recombinant HeLa reporter cells. In words: TNFα-induced activation of NF-κB dependent transcription, luciferase reporter in HeLa cells. The class given is cell-based. As to conditions: TNFα 20 ng/ml, 6 hours. The source says: To test the ACE2 inhibitor GL1001 for anti-inflammatory activity relevant to IBD, effects of the compound on activation of NF-κB dependent transcription by TNFα were examined in recombinant reporter cells containing a construct with a luciferase reporter gene under control of NF-κB dependent regulatory sequences, thereby allowing detection of NF-κB dependent transcription by measuring reporter enzyme using a conventional luciferase activity assay based on detection of generated light.
In particular, HeLa cells (American Type Culture Collection) were grown in Dulbecco's modified Eagles medium (DMEM) supplemented with 10% fetal calf serum and transiently transfected with an NF-κB-luc construct (Stratagene, Inc.), as follows (with all incubation steps at 37 C unless otherwise indicated). Cells were seeded and grown to about 70% confluency in a 10 cm cell culture dish. Plasmid DNA (10 μg) was added to 1 ml serum free DMEM media in a tube. Fugene 6 transfection reagent (30 μl) (Roche) was then pipetted slowly into the tube and the contents were gently mixed by inversion. The mixture was incubated at room temperature for 15 minutes and then added dropwise to cells in one 10 cm dish. […] Bioluminescence was then measured using a Veritas luminometer (Turner BioSystems). […]
For orientation: A reporter such as luciferase makes a cellular process visible.

The mark [9] stands for this setting: after a single dose, 5 mg/kg infusion.

For `O=C(O)c1cc(/N=N/c2ccc(S(=O)(=O)Nc3ccccn3)cc2)ccc1O` [sulfasalazine], the “reduction in colon length” value in series [1] (sulfasalazine 150 mg/kg b.i.d. subcutaneous (FIG. 19)) is “inhibits reduction”. In addition, the “distal colon inflammation score” value in series [1] (sulfasalazine 150 mg/kg b.i.d. subcutaneous (FIG. 20)) is listed as “reduces”. In addition, in series [1] (sulfasalazine 150 mg/kg b.i.d. subcutaneous (FIG. 21)), the “distal colon crypt score” value is on record as “reduces”. For the same molecule, in series [1] (sulfasalazine 150 mg/kg b.i.d. subcutaneous (FIG. 23)), the “distal colon total histopathology score” value is recorded as “reduces”. Also, in series [1] (sulfasalazine 150 mg/kg b.i.d. subcutaneous, day 7 (FIG. 17)), the stool consistency result is “No significant effect”. In series [1] (sulfasalazine 150 mg/kg b.i.d. subcutaneous, day 7 (FIG. 18)), the fecal occult blood result was “reduces”. Besides, in series [1] (sulfasalazine 150 mg/kg b.i.d. subcutaneous, day 9 (FIG. 15)), the percentage weight loss result was “No significant effect”. The rectal prolapse result in series [1] (sulfasalazine 150 mg/kg b.i.d. subcutaneous, day 9 (FIG. 16)) is recorded as “reduces”.

With “Infliximab: anti-TNFα monoclonal antibody”, in series [2] (setting [9]), the “induction of remission rate in CD” value is listed as 50% and the “response rate in CD” value was 80%. In addition, in series [2] (human, in vivo), the “patients in whom the fistula responds (closes), fistulizing CD” value is listed as 68% and the “patients who develop an abscess, fistulizing CD” value is 12%. Besides, the “response rates in UC” value in series [3] is 50-70%. Also, the NF-κB activity result in series [4] is listed as “decrease”.

Turning to `CC(C)C[C@H](N[C@@H](Cc1cncn1Cc1cc(Cl)cc(Cl)c1)C(=O)O)C(=O)O` [GL1001, (S,S)-2-[1-carboxy-2-[3-(3,5-dichlorobenzyl)-3H-imidazol-4-yl]-ethylamino]-4-methylpentanoic acid], the “inhibition of basal in vivo levels of NF-κB dependent transcription in abdominal ROI” value in series [5] is “over 40%”. The “effect on basal in vivo levels of reporter luciferase expression in AP-1:Luc mice” value in series [6] is “no significant effect”. For the same molecule, the “reduction of LPS induced NF-κB-dependent transcription in stomach” value in series [7] is listed as “about 37 fold”. The “inhibition of TNFα induced activation of NF-κB dependent transcription” value in series [8] (8 nM) is reported as “over 80%”. For the same molecule, the “maximal inhibition of TNFα induced activation of NF-κB dependent transcription” value in series [8] (0.2 μM) is given as “over 95%”.
